Results: patent US20110091387A1, “METHODS AND COMPOSITIONS FOR REDUCING SKIN DAMAGE” (THE GENERAL HOSPITAL CORPORATION, priority 2007, published 2011)
Counter-ions that a name gives are not always drawn.

Test system: RhoE promoter
Assay: RhoE promoter luc2 luciferase reporter screen for inducers of RhoE expression
Type: cell-based
Conditions: luminescence at 24 hours; for Composite Z value (induction of RhoE expression): Table 1, two replicates per compound
Method: To isolate compounds that can activate RhoE pathway in keratinocytes and protect against UVB exposure, a robust and sensitive chemical genetics approach was developed for the identification of small molecules that induce RhoE expression. Briefly, a reporter construct was created that included the RhoE promoter operatively linked to the luc2 luciferase reporter gene (FIG. 1A). Stable cell lines were produced that expressed the reporter construct, and the cells were plated in 384 well plates at ˜10,000 cells per well. The library test compounds were added to the plated cells at two replicates per compound, and the cells were incubated with the compounds for 24 hours. Luminescence was measured at 24 hours using a plate reader. The data were analyzed using Spotfire.

Structure (SMILES) | Composite Z value (induction of RhoE expression) | Composite Z (Table 2, two replicates)
COC(=O)C(C)c1ccc(C(=O)c2cccs2)cc1 (centres unmarked) [suprofen methyl ester] | 3.2205 | 
COc1cc(OC)c2c(=O)c(-c3ccccc3)coc2c1 [5,7-dimethoxyisoflavone] | 3.2977 | 
COc1ccc(-c2cc(=O)c3ccccc3o2)cc1OC [3′,4′-dimethoxyflavone] | 2.21 | 
O=C(/C=C/c1ccccc1)c1ccc(O)cc1 [4′-hydroxychalcone] | 2.8467 | 
COc1ccc(-c2coc3cc(OC)ccc3c2=O)cc1 [7,4′-dimethoxyisoflavone] | 3.0721 | 
O=c1c2ccccc2[se]n1-c1ccccc1 [Ebselen] | 2.3104 | 
C=C1C(=O)O[C@@H]2C[C@@]3(C)CCC[C@H](C)C3=C[C@H]12 [Helenine] | 2.473 | 
CC(C)N(C(=O)CCl)c1ccccc1 [Propachlor] | 2.8556 | 
COc1cc(O)c(C(=O)/C=C/c2ccccc2)c(OC)c1 [flavokawain b] | 3.604 | 
O=C1c2ccccc2-c2cccc3cccc1c23 [Benzanthrone] | 2.735 | 
O=c1cc(-c2ccc(O)cc2)oc2cc(O[C@@H]3O[C@H](CO)[C@@H](O)[C@H](O)[C@H]3O)cc(O)c12 [Cosmosiin] | 4.8646 | 
C=CC(C1=CC(=O)C(OC)=CC1=O)c1ccc(O)cc1 (centres unmarked) [dalbergione, 4-methoxy-4′-hydroxy-] | 2.3862 | 
COc1ccc(-c2coc3cc(OC(C)=O)cc(OC(C)=O)c3c2=O)cc1 [biochanin a diacetate] | 3.6564 | 
COc1cc(OC)c2c(=O)cc(-c3ccccc3)oc2c1 [chrysin dimethyl ether] | 3.477 | 
COc1ccc(C2CC(=O)c3ccc(OC)cc3O2)cc1 (centres unmarked) [liquiritigenin dimethyl ether] | 4.6362 | 
COc1ccccc1-c1cc(=O)c2c(OC)cccc2o1 [5,2′-dimethoxyflavone] | 3.0257 | 
Oc1ccc(OCc2ccccc2)cc1 [Monobenzone, reference compound] | 2.1629 | 
COc1ccc(-c2cc(=O)c3c(O)cc(O)cc3o2)cc1O [Diosmetin] | 4.5672 | 
CCN(CC)CCCC(C)Nc1c2ccc(Cl)cc2nc2ccc(OC)cc12 (centres unmarked) [Quinacrine dihydrochloride dihydrate, reference compound] | 2.324 | 
CCOC(=O)C1(O)Oc2cc(OC)cc(OC)c2C(=O)C1c1ccccc1 (centres unmarked) [2-ethoxycarbonyl-2-hydroxy-5,7-dimethoxyisoflavanone] | 2.164 | 
Oc1ccc2c(c1)OC[C@H]1c3cc4c(cc3O[C@@H]21)OCO4 [Maackiain] | 2.2116 | 
O=C(Nc1ccccc1)Nc1ccccc1 [Diphenylurea] | 3.1382 | 
Cc1ccc2cc3c(ccc4ccccc43)c3c2c1CC3 [3-methylcholanthrene] | 2.4062 | 
O=c1cc(-c2ccc(O)c(O)c2)oc2cc(O)cc(O)c12 [Luteolin] | 2.3069 | 
CC(C)OC(=O)Nc1cccc(Cl)c1 [Chlorpropham] | 2.5656 | 

Structure (SMILES) | Composite Z value (induction of RhoE expression) | Composite Z (Table 2, two replicates)
COc1ccc(-c2cc(=O)c3c(O)cc(O)cc3o2)cc1 [Acacetin] | 3.2375 | 
COc1ccc2c(c1)OCC(=Cc1ccc(O)c(O)c1)C2=O [sappanone a 7-methyl ether] | 2.4579 | 
O=c1c2ccccc2oc2ccc(O)cc12 [2-hydroxyxanthone] | 2.2158 | 
C=C(C)c1cc2cc(C(C)=O)c(O)cc2o1 [Euparin] | 2.4662 | 
COc1cc(-c2coc3cc(O[C@@H]4O[C@H](CO)[C@@H](O)[C@H](O)[C@H]4O)c(OC)c(O)c3c2=O)cc(O)c1OC [Iridin] | 2.7194 | 
COc1cc(O)c2c(=O)c(O)c(-c3ccc(O)c(O)c3)oc2c1 [Rhamnetin] | 2.1577 | 
C[C@]12CC[C@H]3C(=CCc4cc(O)ccc43)[C@@H]1CCC2=O [Equilin, reference compound] | 2.3429 | 
COC(=O)Nc1nc2ccc(SC(C)C)cc2[nH]1 [Methiazole] | 2.2516 | 
NNc1nncc2ccccc12 [hydralazine hydrochloride, reference compound] | 2.3583 | 
COc1ccc2c(=O)c(-c3cc4c(cc3OC)OCO4)coc2c1 [cuneatin methyl ether] | 2.23 | 
COc1ccc2oc3ccccc3c(=O)c2c1 [2-methoxyxanthone] | 3.8383 | 
COc1ccc(CC(=O)c2ccc(O)cc2O)cc1 [Ononetin] | 2.6414 | 
O=c1cc(-c2cc(O)c(O)c(O)c2)oc2cc(O)cc(O)c12 [Hieracin] | 3.8448 | 
COc1ccc(-c2coc3cc(O)cc(O)c3c2=O)cc1 [biochanin a] | 3.2901 | 
Cl.NNCc1ccccc1 [benzylhydrazine hydrochloride] | 2.3759 | 
c1ccc2[nH]c(-c3cscn3)nc2c1 [Tiabendazole, reference compound] | 3.5924 | 
CC1(C)C=Cc2cc3ccc(=O)oc3cc2O1 [Xanthyletin] | 2.6831 | 
O=C1C[C@@H](c2ccc(O)cc2)Oc2cc(O)cc(O)c21 [Naringenin] | 2.3231 | 
CNc1ccccc1C(=O)N1CCc2c([nH]c3ccccc23)C1=O [Rhetsinine] | 3.357 | 
COc1cc(OC)c2c(=O)c(-c3ccc4c(c3)OCO4)coc2c1 [Derrustone] | 2.3814 | 
COc1ccc(-c2cc(=O)c3c(OC)cc(OC)cc3o2)cc1 [5,7,4′-trimethoxyflavone] | 5.4102 | 5.4102
O=c1c(-c2ccc(O)cc2)coc2cc(O)cc(O)c12 [Genistein] | 2.5938 | 
CC1=C(/C=C/C(C)=C/C=C/C(C)=C/C(=O)O)C(C)(C)CCC1 [Tretinoin, reference compound] | 2.2603 | 
O=C(CC(=O)c1ccccc1)c1ccccc1 [Dibenzoylmethane] | 3.651 | 
